Test results published in publication PMC11079024, “Identification of a family of species-selective complex I inhibitors as potential anthelmintics” (Nature Communications, 2024).
Where two headings read alike, the source gives them in different places.

Key:
[1] = in vitro; details: human; for viability at 2 days, 3.13 µM / viability at 2 days, 6.25 µM / viability at 2 days, 12.5 µM / viability at 2 days, 25 µM / viability at 2 days, 50 µM / viability at 2 days, 100 µM: HEK293 cells (Flp-In-293); for viability at 2 days, 3.13 µM / viability at 2 days, 6.25 µM / viability at 2 days, 12.5 µM / viability at 2 days, 25 µM / viability at 2 days, 50 µM / viability at 2 days, 100 µM / viability: HEK293 viability
[2] = tested on: L1 wild-type C. elegans
[3] = tested on: L1 wild-type C. elegans; assay: microbe, parasite or virus in culture; details: Caenorhabditis elegans, read-out: C. elegans KCN Survival Assay LC50, estimated from fitted dose-response curves; mean of at least two biological replicates
[4] = tested on: ben-1 mutant (ECA882) C. elegans; assay: microbe, parasite or virus in culture; details: Caenorhabditis elegans; for viability at 1 µM / viability at 2 µM / viability at 3.9 µM / viability at 15.6 µM / viability at 31.3 µM / viability at 62.5 µM / viability at 125 µM / viability at 250 µM / viability at 500 µM / viability at 1000 µM: read-out: C. elegans ben-1(e1880) development/viability
In short: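 Development and viability scored from single well images as total worm pixels divided by the matching DMSO control value, mean of ≥3 replicates. Worms added as synchronized L1s to HB101 suspension in liquid NGM with compound (1% DMSO v/v), grown 6 days at 20 °C with shaking.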

[5] = HEK293 Cell Viability Assay LC50, HEK293 cells, estimated from fitted dose-response curves
[6] = 50 μM, […], hit = relative motility below 0.25 3 hours after removal of KCN
[7] = Dose 0.2 µM, mean of at least three biological replicates
[8] = read-out: C. elegans (ben-1) Development & Viability Assay LC50
[9] = read-out: C. elegans ben-1 log10 LC50 (converted)
[10] = HEK293 Cell Viability Assay LC50, HEK293 cells, estimated from fitted dose-response curves, mean of at least two biological replicates
[11] = 50 μM, […], KCN survival assay, hit = relative motility below 0.25

| Structure (SMILES) | viability at 2 days, 6.25 µM ([1]; Dose 6.25 µM) [%] | viability at 2 days, 12.5 µM [1] [%] | viability at 2 days, 25 µM [1] [%] | viability at 2 days, 50 µM [1] [%] | viability at 2 days, 100 µM [1] [%] | C. elegans KCN Survival [2, 7] | C. elegans KCN Survival ([2]; Dose 0.39 µM) | C. elegans KCN Survival ([2]; Dose 1.56 µM) | C. elegans KCN Survival ([2]; Dose 3.13 µM) | C. elegans KCN Survival ([2]; Dose 6.25 µM) | C. elegans KCN Survival ([2]; Dose 12.5 µM) | C. elegans KCN Survival ([2]; Dose 25 µM) | C. elegans KCN Survival ([2]; Dose 50 µM) | C. elegans KCN Survival ([2]; Dose 100 µM) | LC50 [3] [µM] | LC50 [4, 8] [µM] | viability at 15.6 µM [4] [%] | viability at 31.3 µM [4] [%] | viability at 62.5 µM [4] [%] | LC50 [4, 9] [µM] | also measured |
| --- | --- | --- | --- | --- | --- | --- | --- | --- | --- | --- | --- | --- | --- | --- | --- | --- | --- | --- | --- | --- | --- |
| CCc1cc(OCCn2cnc3ccccc32)ccc1Cl [Compound 7925288] | 96.8 | 93.6 | 81.1 | 8.7 | 7.1 | 1.082 | 1.088 | 1.105 | 1.186 | 1.064 | 0.930 | 0.276 | 0.146 | 0.159 | 19.1 | 55.2 | 94.7 | 88 | 39.9 | 55.2 | CC50 at 2 days [1, 5]: 34.1 µM; viability at 2 days, 3.13 µM ([1]; Dose 3.13 µM): 91.4%; Screen "Hit" [2, 6]: Y (hits were identified as compounds that reduced relative motility below 0.25 (75% reduction)); viability at 1 µM [4]: 100%; viability at 2 µM [4]: 96%; viability at 3.9 µM [4]: 96.4%; viability at 125 µM [4]: 3.8%; viability at 250 µM [4]: 3.3%; viability at 500 µM [4]: 2.9%; viability at 1000 µM [4]: 1.8% |
| Cc1ccc(SCCCCn2cnc3ccccc32)cc1 [Compound 7925333] | 97 | 99.2 | 100 | 77.2 | 25.7 | 0.989 | 1.001 | 0.933 | 0.876 | 0.745 | 0.174 | 0.119 | 0.151 | 0.185 | 7.76 | 227 | 90.4 | 93.2 | 77.8 | 227 | CC50 at 2 days [1, 10]: 75.1 µM; viability at 2 days, 3.13 µM ([1]; Dose 3.13 µM): 88.6%; Screen "Hit" [2, 11]: Y (hits were identified as compounds that reduced relative motility below 0.25 (75% reduction)); viability at 1 µM [4]: 92%; viability at 2 µM [4]: 100%; viability at 3.9 µM [4]: 98%; viability at 125 µM [4]: 80.7%; viability at 250 µM [4]: 53.9%; viability at 500 µM [4]: 3.6%; viability at 1000 µM [4]: 1% |
| Cc1ccc(CSCc2nc3ccccc3[nH]2)cc1 [Compound 7121781] | – | 90 | 91.3 | 64.3 | 28.3 | 1.008 | 0.850 | 0.802 | 0.857 | 0.615 | 0.348 | 0.053 | 0.003 | 0.000 | 9.79 | 468 | 87.2 | 91.7 | 100 | 468 | CC50 at 2 days [1]: 74.2 µM; viability ([1]; Dose 3.13 µM): 86.1%; viability ([1]; Dose 6.25 µM): 87.2%; Screen "Hit" [2, 6]: Y (hits were identified as compounds that reduced relative motility below 0.25 (75% reduction)); Relative Motility ([2]; 50 μM, […], worm motility 3 hours after removal of KCN, relative to DMSO controls, single biological replicate): 0.077; viability at 125 µM [4]: 87.1%; viability at 250 µM [4]: 86.1%; viability at 500 µM [4]: 47.1%; viability at 1000 µM [4]: 8.1% |
| Cc1ccc(SCCCn2cnc3ccccc32)cc1 [Compound 7926035] | 96.6 | 98.4 | 97.6 | 65.6 | 30.4 | 0.990 | 0.961 | 0.929 | 0.707 | 0.388 | 0.123 | 0.118 | 0.139 | 0.184 | 4.71 | 69.8 | 91.5 | 76.7 | 57.7 | 69.8 | CC50 at 2 days [1, 10]: 71.4 µM; viability at 2 days, 3.13 µM ([1]; Dose 3.13 µM): 90.8%; Screen "Hit" [2, 6]: Y (hits were identified as compounds that reduced relative motility below 0.25 (75% reduction)); viability at 1 µM [4]: 94.4%; viability at 2 µM [4]: 87.2%; viability at 3.9 µM [4]: 86.3%; viability at 125 µM [4]: 5.4%; viability at 250 µM [4]: 2.6%; viability at 500 µM [4]: 3.4%; viability at 1000 µM [4]: 5.6% |
| Cc1nc2ccccc2n1Cc1ccc(Br)cc1 [Compound 5567167] | – | – | – | – | – | – | – | – | – | – | – | – | – | – | 1.34 | 11.2 | – | – | – | 11.2 | CC50 at 2 days [1, 10]: 89.3 µM; Screen "Hit" [2, 11]: Y (hits were identified as compounds that reduced relative motility below 0.25 (75% reduction)) |
| Nc1nc2ccccc2n1CCOc1ccc(Br)cc1 [Compound 5842535] | 82.9 | 67.8 | 11 | 6.3 | 6.3 | 1.013 | 1.010 | 1.035 | 1.110 | 1.056 | 0.989 | 0.572 | 0.188 | 0.200 | 26.7 | 41.1 | 100 | 85.9 | 5.7 | 41 | CC50 at 2 days [1, 5]: 17.3 µM; viability at 2 days, 3.13 µM ([1]; Dose 3.13 µM): 79.2%; Screen "Hit" [2, 6]: Y (hits were identified as compounds that reduced relative motility below 0.25 (75% reduction)); viability at 1 µM [4]: 99.9%; viability at 2 µM [4]: 100%; viability at 3.9 µM [4]: 97.9%; viability at 125 µM [4]: 6% |
| CC(C)Cc1ccc(C(C)c2nc3ccccc3n2C(C)C)cc1 (stereo not shown) [STK951903] | – | – | – | – | – | – | – | – | – | – | – | – | – | – | 25.1 | 731 | – | – | – | 731 | CC50 at 2 days [1, 5]: 29.2 µM; Screen "Hit" ([2]; 50 μM compound, […], hit = relative motility below 0.25 3 hours after removal of KCN): Y (hits were identified as compounds that reduced relative motility below 0.25 (75% reduction)) |
| CC(C)Oc1cccc(OCCn2cnc3ccccc32)c1 [Compound 7926496] | 97.4 | 96.9 | 97.3 | 85.9 | 43.4 | 1.017 | 1.017 | 1.072 | 1.070 | 1.047 | 0.937 | 0.437 | 0.153 | 0.199 | 23 | 388 | 90.6 | 95.8 | 91.5 | 388 | CC50 at 2 days [1]: 94.5 µM; viability ([1]; Dose 3.13 µM): 91.5%; Screen "Hit" [2, 6]: Y (hits were identified as compounds that reduced relative motility below 0.25 (75% reduction)); viability at 1 µM [4]: 86.1%; viability at 2 µM [4]: 87.5%; viability at 3.9 µM [4]: 87.4%; viability at 125 µM [4]: 81%; viability at 250 µM [4]: 86.3%; viability at 500 µM [4]: 13.9%; viability at 1000 µM [4]: 3.6% |
| Clc1ccc(Cn2cnc3ccccc32)c(Cl)c1 [Compound 6750659] | 100 | 100 | 100 | 76 | 19.4 | 0.888 | 0.896 | 0.908 | 0.544 | 0.267 | 0.023 | 0.000 | 0.000 | 0.000 | 4.28 | 42.2 | – | – | – | 42.3 | CC50 at 2 days [1, 10]: 72.7 µM; viability at 2 days, 3.13 µM ([1]; Dose 3.13 µM): 95.5%; Screen "Hit" [2, 11]: Y (hits were identified as compounds that reduced relative motility below 0.25 (75% reduction)) |
